From patent US7686852B2, “Monoazo dyes” (Clariant Finance (BVI) Limited, priority 2004, dated 2010)

Columns and labels:
[1] = Comparative Test Series 3: stability of dye solution after cooling to 25° C. and 48 hours, filtration test; assay type: physicochemical; parameters: key to Aspect of the solution after the 48 hours: 1): after cooling down turned immediately cloudy; 2): remained clear after cooling down; key to Grade of the visual inspection of the upper filter: a grade of 5 signifies no residue; 4 signifies little, fine residues; 3 signifies bigger residues; 2 signifies coarse residues; 1 signifies a compact layer of precipitated dyestuff; settings: for Aspect of the solution after the 48 hours: dissolved at 90° C., kept at 25° C. for 48 hour; for time for passing of the 200 ml of dye solution trough the 2 filter layers / Grade of the visual inspection of the upper filter: after 48 hour at 25° C.; for Grade of the visual inspection of the upper filter: filtered through 2 paper filters
Experimental: In 160 ml of water a certain amount of dyestuff was dissolved at 90° C. and the resulting solution was diluted to 200 ml by adding water of 90° C. This solution was put in a water bath kept at 25° C. and after the dye solution was at 25° the dye solution was let for 48 hour without stirring or shaking at 25° C.
The solution was visually inspected first and the filtrated trough 2 layers of paper filters of 70 mm diameter (Typ 1450 CV obtainable from Schleicher & Schuell MicroScience GmbH
Hahnestrasse 3; D-37586 Dassel). The time for passing of the 200 ml of dye solution was measured and the upper filter was inspected visually. Grades are given and a grade of 5 signifies no residue, 4 signifies little, fine residues, 3 signifies bigger residues, 2 signifies coarse residues and 1 signifies a compact layer of precipitated dyestuff.

[2] = hot water, then cooling; cited from earlier work
[3] = Solubility in water / stability of stock solutions; assay type: physicochemical; settings: room temperature

| SMILES | Aspect of the solution after the 48 hours ([1]; 6 g/Liter in water) | time for passing of the 200 ml of dye solution trough the 2 filter layers ([1]; 6 g/Liter) | Grade of the visual inspection of the upper filter ([1]; 6 g/Liter) | Aspect of the solution after the 48 hours ([1]; 12 g/Liter in water) | time for passing of the 200 ml of dye solution trough the 2 filter layers ([1]; 12 g/Liter) | Grade of the visual inspection of the upper filter ([1]; 12 g/Liter) | Aspect of the solution after the 48 hours ([1]; 20 g/Liter in water) | time for passing of the 200 ml of dye solution trough the 2 filter layers ([1]; 20 g/Liter) | Grade of the visual inspection of the upper filter ([1]; 20 g/Liter) | Aspect of the solution after the 48 hours ([1]; 30 g/Liter in water) | time for passing of the 200 ml of dye solution trough the 2 filter layers ([1]; 30 g/Liter) | Grade of the visual inspection of the upper filter ([1]; 30 g/Liter) | solubility in water [2] | stability of stock solutions [3] |
| --- | --- | --- | --- | --- | --- | --- | --- | --- | --- | --- | --- | --- | --- | --- |
| Cc1ccc(S(=O)(=O)Oc2ccc(/N=N/c3ccc(Nc4ccc(S(=O)(=O)O)cc4[N+](=O)[O-])cc3)c(C)c2)cc1 | 1) | 16 s | 4 | 1) | 27 s | 3 | 1) | 33 s | 2 to 3 | 1) | 95 s | 1 to 2 | soluble in hot water, but partly reprecipitates on cooling | – |
| Cc1cc(OS(=O)(=O)c2ccc(C(C)(C)C)cc2)ccc1/N=N/c1ccc(Nc2ccc(S(=O)(=O)O)cc2[N+](=O)[O-])cc1 [Example 1] | 2) | 6 s | 4 | 2) | 7 s | 3 to 4 | 2) | 7 s | 3 | 2) | 8 s | 2 to 3 | – | remain clear for several weeks even at room temperature |
